Where two headings read alike, the source gives them in different places.
Experiments:
[1] = Solubility in 0.1 M phosphate buffer at pH 7; assay type: physicochemical; conditions: 0.1 M phosphate buffer at pH 7, 10 mg/mL final peptide concentration, shaking 2 hours at room temperature, peptides as TFA-salts; measured sample pH 6.5-7.0
hNPY2R = target: T1, hNPY2R (Homo sapiens, UniProt P49146); assay: hNPY2R CreLuc assay in 0.5% and 100% plasma (HEK-293 CRE-luciferase reporter cells); assay type: cell-based; conditions: HEK-293 reporter cells
T1 construct: expressed in transfected cells; host or cells: HEK-293 CRE-luciferase reporter cells
T1 sequence (P49146 1-381): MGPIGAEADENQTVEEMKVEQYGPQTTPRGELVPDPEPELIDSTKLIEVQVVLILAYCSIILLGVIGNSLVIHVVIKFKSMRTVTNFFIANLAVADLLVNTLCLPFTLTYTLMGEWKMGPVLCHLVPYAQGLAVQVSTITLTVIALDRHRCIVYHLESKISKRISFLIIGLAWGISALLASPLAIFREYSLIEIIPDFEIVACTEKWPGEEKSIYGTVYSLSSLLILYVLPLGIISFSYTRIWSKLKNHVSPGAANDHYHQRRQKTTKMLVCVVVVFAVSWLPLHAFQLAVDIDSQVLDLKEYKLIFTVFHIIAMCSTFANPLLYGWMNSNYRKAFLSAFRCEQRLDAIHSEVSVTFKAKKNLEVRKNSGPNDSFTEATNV

[2] = Mouse PK after intravenous application; assay type: in vivo; conditions: plasma, male NMRI mice, intravenous 30-60 nmol/kg, non-compartmental analysis
Description: Pharmacokinetic parameters of the peptides were determined after intravenous application to NMRI mice (Naval Medical Research Institute mice). Male NMRI mice were obtained from Janvier Laboratories (France) weighing 30 g to 40 g. Mice were housed in standard cages with a 12:12 hours light:dark cycle and standard food and water access ad libitum. Each test peptide was dissolved in 50 mM phosphate buffer (pH 7.4)/3.5% mannitol. Intravenous application of 30-60 nmol/kg was performed via the tail vein. Serial blood samples from conscious mice were collected from the saphenous vein in EDTA-containing vials at different time points up to 56 hours post-dosing. Subsequently, plasma was prepared by centrifugation for 5 minutes at approximately 5000 rpm and stored at −20° C. until quantification of the peptide plasma levels by liquid chromatography mass spectrometry (LC-MS). Individual plasma concentration-time profiles were analysed by a non-compartmental approach and the resulting pharmacokinetic parameters were calculated.

hGIPR = target: T2, hGIPR (Homo sapiens, UniProt P48546); assay: hGIPR CreLuc assay in 0.5% and 100% plasma (CHO CRE-luciferase reporter cells); assay type: cell-based
T2 construct: expressed in transfected cells; host or cells: CHO CRE-luciferase reporter cells
T2 sequence (P48546 22-466): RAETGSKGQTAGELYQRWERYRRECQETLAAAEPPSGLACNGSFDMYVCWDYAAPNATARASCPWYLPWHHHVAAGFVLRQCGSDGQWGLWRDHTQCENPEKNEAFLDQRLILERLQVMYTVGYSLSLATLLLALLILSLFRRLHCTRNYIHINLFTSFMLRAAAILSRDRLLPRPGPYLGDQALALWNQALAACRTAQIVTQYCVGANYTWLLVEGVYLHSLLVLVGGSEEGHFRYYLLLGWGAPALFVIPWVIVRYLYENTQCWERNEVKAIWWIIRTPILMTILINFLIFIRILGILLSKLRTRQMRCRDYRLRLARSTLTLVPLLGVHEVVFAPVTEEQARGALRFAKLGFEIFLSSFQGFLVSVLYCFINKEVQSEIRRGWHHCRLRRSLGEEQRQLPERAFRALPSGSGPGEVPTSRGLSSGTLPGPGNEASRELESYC

hGLP1R = target: T3, hGLP1R (Homo sapiens, UniProt P43220); assay: hGLP1R CreLuc assay in 0.5% and 100% plasma (HEK-293 CRE-luciferase reporter cells); assay type: cell-based; conditions: HEK-293 reporter cells
T3 construct: expressed in transfected cells; host or cells: HEK-293 CRE-luciferase reporter cells
T3 sequence (P43220 24-463): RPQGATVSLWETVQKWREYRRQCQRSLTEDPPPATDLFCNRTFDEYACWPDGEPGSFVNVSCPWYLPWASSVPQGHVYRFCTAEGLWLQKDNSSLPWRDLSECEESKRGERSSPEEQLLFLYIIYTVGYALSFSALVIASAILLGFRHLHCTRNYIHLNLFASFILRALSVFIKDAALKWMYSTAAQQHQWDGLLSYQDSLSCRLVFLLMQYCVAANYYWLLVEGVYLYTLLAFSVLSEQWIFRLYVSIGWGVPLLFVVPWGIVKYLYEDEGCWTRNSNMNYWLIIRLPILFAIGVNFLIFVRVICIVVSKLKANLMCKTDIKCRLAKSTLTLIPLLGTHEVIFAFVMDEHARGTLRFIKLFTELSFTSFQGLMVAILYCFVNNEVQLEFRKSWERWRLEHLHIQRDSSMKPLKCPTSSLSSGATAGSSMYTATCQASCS

[3] = 0.5% human plasma, read-out: hGIPR 0.5% hP
[4] = 0.5% human plasma, read-out: hGLP1R 0.5% hP
[5] = 0.5% human plasma, read-out: hNPY2R 0.5% hP

Row | solubility at 2 h [1] [µg/mL] | EC50 (hNPY2R; 100% human plasma, read-out: hNPY2R 100% hP) [nM] | MRT [2] [h] | EC50 (hGIPR; [3]) [nM] | EC50 (hGLP1R; [4]) [nM] | EC50 (hNPY2R; [5]) [nM] | EC50 (hGIPR; 100% human plasma, read-out: hGIPR 100% hP) [nM] | EC50 (hGLP1R; 100% human plasma, read-out: hGLP1R 100% hP) [nM] | SMILES
1 | 3800 | 28.2 | 7.3 | 0.6 | – | – | – | – | CC[C@H](C)[C@H](NC(=O)[C@H](CC(C)C)NC(=O)[C@H](Cc1c[nH]cn1)NC(=O)[C@H](CCCNC(=N)N)NC(=O)[C@@H](NC(=O)[C@H](Cc1ccccc1)NC(=O)[C@H](C)NC(=O)C(C)(C)NC(=O)[C@H](CCC(=O)O)NC(=O)[C@H](C)NC(=O)[C@H](CCC(N)=O)NC(=O)[C@H](CCCCN)NC(=O)[C@H](CCC(=O)O)NC(=O)[C@H](CC(C)C)NC(=O)C(C)(C)NC(=O)[C@@H](NC(=O)[C@H](CO)NC(=O)[C@H](Cc1ccc(O)cc1)NC(=O)[C@H](CC(=O)O)NC(=O)[C@H](CO)NC(=O)[C@@H](NC(=O)[C@H](Cc1ccccc1)NC(=O)[C@@H](NC(=O)CNC(=O)[C@H](CCC(=O)O)NC(=O)C(C)(C)NC(=O)[C@@H](N)Cc1ccc(O)cc1)[C@@H](C)O)[C@@H](C)O)[C@@H](C)CC)C(C)C)C(=O)N[C@@H](CC(N)=O)C(=O)N[C@@H](CCCCNC(=O)[C@@H](N)CCCCNC(=O)CC[C@H](NC(=O)CC[C@H](NC(=O)CC[C@H](NC(=O)CC[C@H](NC(=O)CC[C@H](NC(=O)CC[C@H](NC(=O)CCCCCCCCCCCCCCCCC(=O)O)C(=O)O)C(=O)O)C(=O)O)C(=O)O)C(=O)O)C(=O)O)C(=O)NC(C)(C)C(=O)N[C@H](C(=O)N[C@@H](CCCNC(=N)N)C(=O)N[C@@H](CCC(N)=O)C(=O)N[C@@H](CCCNC(=N)N)C(=O)N[C@@H](Cc1ccc(O)cc1)C(N)=O)[C@@H](C)O [Compound 10, Y-Aib-E-G-T-F-T-S-D-Y-S-I-Aib-L-E-K-Q-A-E-Aib-A-F-V-R-H-L-I-N-K(1,3)-Aib-T-R-Q-R-Y-NH2.C18DA-gGlu-gGlu-gGlu-gGlu-gGlu-gGlu-eLys(1,2)]
2 | 3800 | – | 7.8 | 0.4 | 0.6 | 16.8 | – | – | CC[C@H](C)[C@H](NC(=O)[C@H](CC(C)C)NC(=O)[C@H](Cc1c[nH]cn1)NC(=O)[C@H](CCCNC(=N)N)NC(=O)[C@@H](NC(=O)[C@H](Cc1ccccc1)NC(=O)[C@H](CCC(=O)O)NC(=O)C(C)(C)NC(=O)[C@H](CCC(N)=O)NC(=O)[C@H](C)NC(=O)[C@H](CCC(N)=O)NC(=O)[C@H](CCCCN)NC(=O)[C@H](CCC(=O)O)NC(=O)[C@H](CC(C)C)NC(=O)C(C)(C)NC(=O)[C@@H](NC(=O)[C@H](CO)NC(=O)[C@H](Cc1ccc(O)cc1)NC(=O)[C@H](CC(=O)O)NC(=O)[C@H](CO)NC(=O)[C@@H](NC(=O)[C@H](Cc1ccccc1)NC(=O)[C@@H](NC(=O)CNC(=O)[C@H](CCC(=O)O)NC(=O)C(C)(C)NC(=O)[C@@H](N)Cc1ccc(O)cc1)[C@@H](C)O)[C@@H](C)O)[C@@H](C)CC)C(C)C)C(=O)N[C@@H](CC(N)=O)C(=O)N[C@@H](CCCCNC(=O)[C@@H](N)CCCCNC(=O)CC[C@H](NC(=O)CC[C@H](NC(=O)CC[C@H](NC(=O)CC[C@H](NC(=O)CC[C@H](NC(=O)CC[C@H](NC(=O)CCCCCCCCCCCCCCCCC(=O)O)C(=O)O)C(=O)O)C(=O)O)C(=O)O)C(=O)O)C(=O)O)C(=O)N[C@@H](CC(C)C)C(=O)N[C@H](C(=O)N[C@@H](CCCNC(=N)N)C(=O)N[C@@H](CCC(N)=O)C(=O)N[C@@H](CCCNC(=N)N)C(=O)N[C@@H](Cc1ccc(O)cc1)C(N)=O)[C@@H](C)O [Compound 83, Y-Aib-E-G-T-F-T-S-D-Y-S-I-Aib-L-E-K-Q-A-Q-Aib-E-F-V-R-H-L-I-N-K(1,3)-L-T-R-Q-R-Y-NH2.C18DA-gGlu-gGlu-gGlu-gGlu-gGlu-gGlu-eLys(1,2)]
3 | 4200 | – | 10 | 0.2 | 0.4 | – | 2.8 | – | CC[C@H](C)[C@H](NC(=O)[C@H](CC(C)C)NC(=O)[C@H](Cc1c[nH]cn1)NC(=O)[C@H](CCCNC(=N)N)NC(=O)[C@@H](NC(=O)[C@H](Cc1ccccc1)NC(=O)[C@H](C)NC(=O)C(C)(C)NC(=O)[C@H](CCC(N)=O)NC(=O)[C@H](C)NC(=O)[C@H](CCC(N)=O)NC(=O)[C@H](CCCCN)NC(=O)[C@H](CCC(=O)O)NC(=O)[C@H](CC(C)C)NC(=O)C(C)(C)NC(=O)[C@@H](NC(=O)[C@H](CO)NC(=O)[C@H](Cc1ccc(O)cc1)NC(=O)[C@H](CC(=O)O)NC(=O)[C@H](CO)NC(=O)[C@@H](NC(=O)[C@H](Cc1ccccc1)NC(=O)[C@@H](NC(=O)CNC(=O)[C@H](CCC(=O)O)NC(=O)C(C)(C)NC(=O)[C@@H](N)Cc1ccc(O)cc1)[C@@H](C)O)[C@@H](C)O)[C@@H](C)CC)C(C)C)C(=O)N[C@@H](CC(N)=O)C(=O)N[C@@H](CCCCNC(=O)[C@@H](N)CCCCNC(=O)CC[C@H](NC(=O)CC[C@H](NC(=O)CC[C@H](NC(=O)CC[C@H](NC(=O)CC[C@H](NC(=O)CC[C@H](NC(=O)CC[C@H](NC(=O)CCCCCCCCCCCCCCCCC(=O)O)C(=O)O)C(=O)O)C(=O)O)C(=O)O)C(=O)O)C(=O)O)C(=O)O)C(=O)NC(C)(C)C(=O)N[C@H](C(=O)N[C@@H](CCCNC(=N)N)C(=O)N[C@@H](CCC(N)=O)C(=O)N[C@@H](CCCNC(=N)N)C(=O)N[C@@H](Cc1ccc(O)cc1)C(N)=O)[C@@H](C)O [Compound 121, Y-Aib-E-G-T-F-T-S-D-Y-S-I-Aib-L-E-K-Q-A-Q-Aib-A-F-V-R-H-L-I-N-K(1,3)-Aib-T-R-Q-R-Y-NH2.C18DA-gGlu-gGlu-gGlu-gGlu-gGlu-gGlu-gGlu-eLys(1,2)]
4 | – | – | 5.3 | 0.4 | 1 | 32.8 | – | 4 | CC[C@H](C)[C@H](NC(=O)[C@H](CC(C)C)NC(=O)[C@H](Cc1c[nH]cn1)NC(=O)[C@H](CCCNC(=N)N)NC(=O)[C@@H](NC(=O)[C@H](Cc1ccccc1)NC(=O)[C@H](C)NC(=O)C(C)(C)NC(=O)[C@H](CCC(N)=O)NC(=O)[C@H](C)NC(=O)[C@H](CCC(N)=O)NC(=O)[C@H](CCCCN)NC(=O)[C@H](CCC(=O)O)NC(=O)[C@H](CC(C)C)NC(=O)C(C)(C)NC(=O)[C@@H](NC(=O)[C@H](CO)NC(=O)[C@H](Cc1ccc(O)cc1)NC(=O)[C@H](CC(=O)O)NC(=O)[C@H](CO)NC(=O)[C@@H](NC(=O)[C@H](Cc1ccccc1)NC(=O)[C@@H](NC(=O)CNC(=O)[C@H](CCC(=O)O)NC(=O)C(C)(C)NC(=O)[C@@H](N)Cc1ccc(O)cc1)[C@@H](C)O)[C@@H](C)O)[C@@H](C)CC)C(C)C)C(=O)N[C@@H](CC(N)=O)C(=O)N[C@@H](CCCCNC(=O)CC[C@H](NC(=O)CC[C@H](NC(=O)CC[C@H](NC(=O)CC[C@H](NC(=O)CC[C@H](NC(=O)CC[C@H](NC(=O)CCCCCCCCCCCCCCCCC(=O)O)C(=O)O)C(=O)O)C(=O)O)C(=O)O)C(=O)O)C(=O)O)C(=O)NC(C)(C)C(=O)N[C@H](C(=O)N[C@@H](CCCNC(=N)N)C(=O)N[C@@H](CCC(N)=O)C(=O)N[C@@H](CCCNC(=N)N)C(=O)N[C@@H](Cc1ccc(O)cc1)C(N)=O)[C@@H](C)O [Compound 134, Y-Aib-E-G-T-F-T-S-D-Y-S-I-Aib-L-E-K-Q-A-Q-Aib-A-F-V-R-H-L-I-N-K(1,3)-Aib-T-R-Q-R-Y-NH2.C18DA-gGlu-gGlu-gGlu-gGlu-gGlu-gGlu(1,2)]

— patent US20250382344A1, “Soluble GLP1/GIP/NPY2 Receptor Triple Agonists” (Boehringer Ingelheim International GmH, priority 2024, published 2025)
